From patent US20240209027A1, “PEPTIDE AND PEPTIDE-CONTAINING COMPOSITION” (PeptiAID Inc.,, priority 2021, published 2024)
Starred links: 1 amine or outer side, 2 acyl side, 3 side chain; linkers in the order of their positions; H or OH if unused. Positions of bridges follow the written chain, without caps; N, C: chain ends. Non-standard residues stand in square brackets, D forms with d. Residues, ends and D or L forms follow the SMILES beside them. ξ: configuration not given here. Ala(piperidin-4-yl) = O=C([C@H](CC1CCN([*:3])CC1)N[*:1])[*:2]; Ala(indan-2-yl) = N[C@@H](CC1Cc2ccccc2C1)C(=O)O; Phe(4-COOH) = N[C@@H](Cc1ccc(C(=O)O)cc1)C(=O)O; X3 = O=C(O)CN1CCC(N[*:1])(C(=O)[*:2])CC1; Phe(4-F) = N[C@@H](Cc1ccc(F)cc1)C(=O)O; 3Pal = N[C@@H](Cc1cccnc1)C(=O)O; NMeE = CN[C@@H](CCC(=O)O)C(=O)O; dNMeE = CN[C@H](CCC(=O)O)C(=O)O; Cha = N[C@@H](CC1CCCCC1)C(=O)O; Cit = NC(=O)NCCC[C@H](N)C(=O)O; dNMeD = CN[C@H](CC(=O)O)C(=O)O; NMeNle = CCCC[C@H](NC)C(=O)O; ξαMeS = CC(N)(CO)C(=O)O; Aib = CC(C)(N)C(=O)O; Sar = CNCC(=O)O

Tested on: SARS-CoV-2-derived S protein, Delta strain
Assay type: cell-based
Conditions: Table 12

Question: With `CCCC[C@H]1C(=O)NC(C)(C)C(=O)N[C@@H](CC2CCCCC2)C(=O)N[C@@H](Cc2ccc(F)cc2)C(=O)NC2(CCN(CC(=O)O)CC2)C(=O)N[C@@H](Cc2ccc(O)cc2)C(=O)N[C@@H](Cc2ccc(O)cc2)C(=O)N[C@@H](Cc2ccc(C(=O)O)cc2)C(=O)N[C@@H](CC2CCNCC2)C(=O)N[C@@H](CC2CCCCC2)C(=O)N[C@H](C(=O)N[C@H](CCC(=O)O)C(N)=O)CSCC(=O)N(C)[C@@H](CCC(=O)O)C(=O)N1C` [Peptide 5555_p173] ({CH2CO}-[NMeE][NMeNle][Aib][Cha][Phe(4-F)][X3]YY[Phe(4-COOH)][Ala(piperidin-4-yl)][Cha]C[dE]-NH2; thioether N-12) as the molecule, how does the IC50 read?
Answer: 600 pM

Question: What about the “Imax: % (at 500 nM)” value of the same molecule?
Answer: 100%

Question: How did the IC50 turn out when `CCCC[C@H]1C(=O)NC(C)(C)C(=O)N[C@@H](CC2CCCCC2)C(=O)N[C@@H](Cc2ccc(F)cc2)C(=O)N(C)[C@H](CC(=O)O)C(=O)N[C@@H](Cc2ccc(O)cc2)C(=O)N[C@@H](Cc2ccc(O)cc2)C(=O)N[C@@H](Cc2ccc(C(=O)O)cc2)C(=O)N[C@@H](CC2CCNCC2)C(=O)N[C@@H](CC2CCCCC2)C(=O)N[C@H](C(=O)N[C@H](CCC(=O)O)C(N)=O)CSCC(=O)N(C)[C@@H](CCC(=O)O)C(=O)N1C` [Peptide 5555_p176] ({CH2CO}-[NMeE][NMeNle][Aib][Cha][Phe(4-F)][dNMeD]YY[Phe(4-COOH)][Ala(piperidin-4-yl)][Cha]C[dE]-NH2; thioether N-12) was run?
Answer: 600 pM

Question: What about the “Imax: % (at 500 nM)” value of the same molecule?
Answer: 100%

Question: Which IC50 does the source give for `CCCC[C@H]1C(=O)NC(C)(C)C(=O)N[C@@H](CC2CCCCC2)C(=O)N[C@@H](Cc2ccc(F)cc2)C(=O)N[C@H](CC(=O)O)C(=O)N[C@@H](Cc2ccc(O)cc2)C(=O)N[C@@H](Cc2ccc(O)cc2)C(=O)N[C@@H](CCCNC(N)=O)C(=O)N[C@H](CCCCN)C(=O)N[C@@H](CC2CCCCC2)C(=O)N[C@H](C(=O)N[C@H](CCC(=O)O)C(N)=O)CSCC(=O)N[C@@H](Cc2cccnc2)C(=O)N1C` [Peptide 5555_p177] ({CH2CO}-[3Pal][NMeNle][Aib][Cha][Phe(4-F)][dD]YY[Cit][dK][Cha]C[dE]-NH2; thioether N-12) here?
Answer: 2800 pM

Question: What about the “Imax: % (at 500 nM)” value of the same molecule?
Answer: 97%

Question: What does the source list for `CCCC[C@H]1C(=O)NC(C)(C)C(=O)N[C@@H](CC2Cc3ccccc3C2)C(=O)N[C@@H](Cc2ccc(F)cc2)C(=O)N[C@H](CC(=O)O)C(=O)N[C@@H](Cc2ccc(O)cc2)C(=O)N[C@@H](Cc2ccc(O)cc2)C(=O)N[C@@H](CCCNC(N)=O)C(=O)N[C@H](CCCCN)C(=O)N[C@@H](CC2CCCCC2)C(=O)N[C@H](C(=O)N[C@H](CCC(=O)O)C(N)=O)CSCC(=O)N[C@@H](Cc2cccnc2)C(=O)N1C` [Peptide 5555_p178] ({CH2CO}-[3Pal][NMeNle][Aib][Ala(indan-2-yl)][Phe(4-F)][dD]YY[Cit][dK][Cha]C[dE]-NH2; thioether N-12)?
Answer: IC50: 1900 pM; Imax: % (at 500 nM): 100%

Question: What does the source list for `CCCC[C@H]1C(=O)NC(C)(C)C(=O)N[C@@H](CC2CCCCC2)C(=O)N[C@@H](Cc2ccc(F)cc2)C(=O)N2CCC[C@H]2C(=O)N[C@@H](Cc2ccc(O)cc2)C(=O)N[C@@H](Cc2ccc(O)cc2)C(=O)N[C@@H](CCCNC(N)=O)C(=O)N[C@H](CCCCN)C(=O)N[C@@H](CC2CCCCC2)C(=O)N[C@H](C(=O)N[C@H](CCC(=O)O)C(N)=O)CSCC(=O)N(C)[C@@H](CCC(=O)O)C(=O)N1C` [Peptide 5555_p188] ({CH2CO}-[NMeE][NMeNle][Aib][Cha][Phe(4-F)]PYY[Cit][dK][Cha]C[dE]-NH2; thioether N-12)?
Answer: IC50: 400 pM; Imax: % (at 500 nM): 101%

Question: Which results are given for `CCCC[C@H]1C(=O)NC(C)(C)C(=O)N[C@@H](CC2CCCCC2)C(=O)N[C@@H](Cc2ccc(F)cc2)C(=O)N(C)[C@H](CCC(=O)O)C(=O)N[C@@H](Cc2ccc(O)cc2)C(=O)N[C@@H](Cc2ccc(O)cc2)C(=O)N[C@@H](Cc2ccc(C(=O)O)cc2)C(=O)N[C@@H](CC2CCNCC2)C(=O)N[C@@H](CC2CCCCC2)C(=O)N[C@H](C(=O)N[C@H](CCC(=O)O)C(N)=O)CSCC(=O)N[C@@H](Cc2cccnc2)C(=O)N1C` [Peptide 5555_p192] ({CH2CO}-[3Pal][NMeNle][Aib][Cha][Phe(4-F)][dNMeE]YY[Phe(4-COOH)][Ala(piperidin-4-yl)][Cha]C[dE]-NH2; thioether N-12)?
Answer: IC50: 2500 pM; Imax: % (at 500 nM): 102%

Question: How did the IC50 turn out when `CCCC[C@H]1C(=O)NC(C)(C)C(=O)N[C@@H](CC2CCCCC2)C(=O)N[C@@H](Cc2ccc(F)cc2)C(=O)N[C@H](CC(=O)O)C(=O)N[C@@H](Cc2ccc(O)cc2)C(=O)N[C@@H](Cc2ccc(O)cc2)C(=O)N[C@@H](Cc2ccc(C(=O)O)cc2)C(=O)N[C@@H](CC2CCNCC2)C(=O)N[C@@H](CC2CCCCC2)C(=O)N[C@H](C(=O)N[C@H](CCC(=O)O)C(N)=O)CSCC(=O)N[C@@H](Cc2cccnc2)C(=O)N1C` [Peptide 5555_p195] ({CH2CO}-[3Pal][NMeNle][Aib][Cha][Phe(4-F)][dD]YY[Phe(4-COOH)][Ala(piperidin-4-yl)][Cha]C[dE]-NH2; thioether N-12) was run?
Answer: 2300 pM

Question: What about the “Imax: % (at 500 nM)” value of the same molecule?
Answer: 101%

Question: With `CCCC[C@H]1C(=O)NC(C)(C)C(=O)N[C@@H](CC2Cc3ccccc3C2)C(=O)N[C@@H](Cc2ccc(F)cc2)C(=O)NC2(CCN(CC(=O)O)CC2)C(=O)N[C@@H](Cc2ccc(O)cc2)C(=O)N[C@@H](Cc2ccc(O)cc2)C(=O)N[C@@H](Cc2ccc(C(=O)O)cc2)C(=O)N[C@@H](CC2CCNCC2)C(=O)N[C@@H](CC2CCCCC2)C(=O)N[C@H](C(=O)N[C@H](CCC(=O)O)C(N)=O)CSCC(=O)N(C)[C@@H](CCC(=O)O)C(=O)N1C` [Peptide 5555_p196] ({CH2CO}-[NMeE][NMeNle][Aib][Ala(indan-2-yl)][Phe(4-F)][X3]YY[Phe(4-COOH)][Ala(piperidin-4-yl)][Cha]C[dE]-NH2; thioether N-12) as the molecule, how does the IC50 read?
Answer: 800 pM

Question: And the “Imax: % (at 500 nM)” value?
Answer: 101%

Question: With `CCCC[C@H]1C(=O)NC(C)(C)C(=O)N[C@@H](CC2Cc3ccccc3C2)C(=O)N[C@@H](Cc2ccc(F)cc2)C(=O)NC(C)(CO)C(=O)N[C@@H](Cc2ccc(O)cc2)C(=O)N[C@@H](Cc2ccc(O)cc2)C(=O)N[C@@H](Cc2ccc(C(=O)O)cc2)C(=O)N[C@@H](CC2CCNCC2)C(=O)N[C@@H](CC2CCCCC2)C(=O)N[C@H](C(=O)N[C@H](CCC(=O)O)C(N)=O)CSCC(=O)N(C)[C@@H](CCC(=O)O)C(=O)N1C` (stereo partly shown) [Peptide 5555_p197] ({CH2CO}-[NMeE][NMeNle][Aib][Ala(indan-2-yl)][Phe(4-F)][ξαMeS]YY[Phe(4-COOH)][Ala(piperidin-4-yl)][Cha]C[dE]-NH2; thioether N-12) as the molecule, how does the IC50 read?
Answer: 400 pM

Question: What about the “Imax: % (at 500 nM)” value of the same molecule?
Answer: 101%

Question: Which results are given for `CCCC[C@H]1C(=O)NC(C)(C)C(=O)N[C@@H](CC2Cc3ccccc3C2)C(=O)N[C@@H](Cc2ccc(F)cc2)C(=O)N2CCC[C@H]2C(=O)N[C@@H](Cc2ccc(O)cc2)C(=O)N[C@@H](Cc2ccc(O)cc2)C(=O)N[C@@H](Cc2ccc(C(=O)O)cc2)C(=O)N[C@@H](CC2CCNCC2)C(=O)N[C@@H](CC2CCCCC2)C(=O)N[C@H](C(=O)N[C@H](CCC(=O)O)C(N)=O)CSCC(=O)N(C)[C@@H](CCC(=O)O)C(=O)N1C` [Peptide 5555_p201] ({CH2CO}-[NMeE][NMeNle][Aib][Ala(indan-2-yl)][Phe(4-F)]PYY[Phe(4-COOH)][Ala(piperidin-4-yl)][Cha]C[dE]-NH2; thioether N-12)?
Answer: IC50: 700 pM; Imax: % (at 500 nM): 101%

Question: With `CCCC[C@H]1C(=O)NC(C)(C)C(=O)N[C@@H](CC2CCCCC2)C(=O)N[C@@H](Cc2ccc(F)cc2)C(=O)NC(C)(CO)C(=O)N[C@@H](Cc2ccc(O)cc2)C(=O)N[C@@H](Cc2ccc(O)cc2)C(=O)N[C@@H](Cc2ccc(C(=O)O)cc2)C(=O)N[C@@H](CC2CCNCC2)C(=O)N[C@@H](CC2CCCCC2)C(=O)N[C@H](C(=O)N[C@H](CCC(=O)O)C(N)=O)CSCC(=O)N(C)[C@@H](CCC(=O)O)C(=O)N1C` (stereo partly shown) [Peptide 5555_p203] ({CH2CO}-[NMeE][NMeNle][Aib][Cha][Phe(4-F)][ξαMeS]YY[Phe(4-COOH)][Ala(piperidin-4-yl)][Cha]C[dE]-NH2; thioether N-12) as the molecule, how does the IC50 read?
Answer: 500 pM

Question: What about the “Imax: % (at 500 nM)” value of the same molecule?
Answer: 101%

Question: For `CCCC[C@H]1C(=O)NC(C)(C)C(=O)N[C@@H](CC2Cc3ccccc3C2)C(=O)N[C@@H](Cc2ccc(F)cc2)C(=O)N(C)CC(=O)N[C@@H](Cc2ccc(O)cc2)C(=O)N[C@@H](Cc2ccc(O)cc2)C(=O)N[C@@H](CCCNC(N)=O)C(=O)N[C@H](CCCCN)C(=O)N[C@@H](CC2CCCCC2)C(=O)N[C@H](C(=O)N[C@H](CCC(=O)O)C(N)=O)CSCC(=O)N(C)[C@@H](CCC(=O)O)C(=O)N1C` [Peptide 5555_p213] ({CH2CO}-[NMeE][NMeNle][Aib][Ala(indan-2-yl)][Phe(4-F)][Sar]YY[Cit][dK][Cha]C[dE]-NH2; thioether N-12), which IC50 is on record?
Answer: 600 pM

Question: And the “Imax: % (at 500 nM)” value?
Answer: 101%

Question: How did the IC50 turn out when `CCCC[C@H]1C(=O)NC(C)(C)C(=O)N[C@@H](CC2Cc3ccccc3C2)C(=O)N[C@@H](Cc2ccc(F)cc2)C(=O)N2CCC[C@H]2C(=O)N[C@@H](Cc2ccc(O)cc2)C(=O)N[C@@H](Cc2ccc(O)cc2)C(=O)N[C@@H](CCCNC(N)=O)C(=O)N[C@H](CCCCN)C(=O)N[C@@H](CC2CCCCC2)C(=O)N[C@H](C(=O)N[C@H](CCC(=O)O)C(N)=O)CSCC(=O)N(C)[C@@H](CCC(=O)O)C(=O)N1C` [Peptide 5555_p216] ({CH2CO}-[NMeE][NMeNle][Aib][Ala(indan-2-yl)][Phe(4-F)]PYY[Cit][dK][Cha]C[dE]-NH2; thioether N-12) was run?
Answer: 400 pM

Question: What about the “Imax: % (at 500 nM)” value of the same molecule?
Answer: 102%

Question: With `CCCC[C@H]1C(=O)NC(C)(C)C(=O)N[C@@H](CC2CCCCC2)C(=O)N[C@@H](Cc2ccc(F)cc2)C(=O)NC(C)(CO)C(=O)N[C@@H](Cc2ccc(O)cc2)C(=O)N[C@@H](Cc2ccc(O)cc2)C(=O)N[C@@H](CCCNC(N)=O)C(=O)N[C@H](CCCCN)C(=O)N[C@@H](CC2CCCCC2)C(=O)N[C@H](C(=O)N[C@H](CCC(=O)O)C(N)=O)CSCC(=O)N(C)[C@@H](CCC(=O)O)C(=O)N1C` (stereo partly shown) [Peptide 5555_p218] ({CH2CO}-[NMeE][NMeNle][Aib][Cha][Phe(4-F)][ξαMeS]YY[Cit][dK][Cha]C[dE]-NH2; thioether N-12) as the molecule, how does the IC50 read?
Answer: 300 pM

Question: What about the “Imax: % (at 500 nM)” value of the same molecule?
Answer: 101%
